This note sets out measurements from patent US20090118332A1, “Therapeutic Agents - 551” (AstraZeneca AB, priority 2006, published 2009).

The target of this test is T1, human Fatty Acid Synthase (Homo sapiens, UniProt P49327).
T1 construct: made in house
The test is described as follows: Human FAS enzyme assay (decrease in NADPH fluorescence). It is filed as biochemical. Conditions: for inhibition at 100 µM: % inhibition at a concentration of 100 μmolar; for IC50, inhibition of human Fatty Acid Synthase: FAS enzyme assay, IC50 from fitted sigmoid curves. How it is done: Human and Rat FAS Enzyme Assay.
Fatty acid synthase is an enzyme complex that harbours seven enzymatic activities catalysing the reductive synthesis of long chain fatty acids from acetyl CoA and malonyl CoA to palmitate. When acetyl CoA and malonyl CoA are forming palmitate NADPH is consumed forming NADP. Since NADPH is fluorescent but not NADP the reaction can be measured by analysing the decrease in fluorescence.
Compounds were added to a black 384 well plate (Matrix) in a volume of 5 μl consisting of 20% DMSO and 80% Tris buffer pH 7.5, at a top concentration of 1 mM. NADPH, 30 μl of 166.6 μM, formulated in assay buffer (0.1M Tris ph7.5, 0.1 mM EDTA, 1 mM glutathione, 0.05% BSA), was then added to all of the wells of the plate. Fatty acid synthase Human or rat enzyme (0.4 μg, produced in house), dissolved in 20 mM Tris/HCl pH 7.5, 5 mM BOG, 1 mM TCEP, 10% glycerol, 1 mM EDTA, 150 mM NaCl, was then added to the plate in a volume of 10 μl. Enzyme was added to all but the last two columns of the plate, to which, 10 μl of assay buffer was added (0.1M Tris ph7.5, 0.1 mM EDTA, 1 mM glutathione, 0.05% BSA) to provide a no enzyme assay control. Following a 15-minute incubation period, at room temperature, the plates were read on an Envision plate reader using 340 nm excitation and 460 nm emission filters. This served as a time zero background read. Substrates (an equal mix of both malonyl and acetyl CoA) were then added to the plates in a total volume of 5 μl. The concentrations of malonyl and acetyl CoA in the mixture were 500 μM and 150 μM respectively. Both were prepared as 10 mM stock solutions in distilled water and were subsequently diluted to working concentrations in assay buffer. Plates were then incubated for a further 60 minutes, at room temperature, before being read again on the Envision reader using the same parameters as previously used. The data was analysed by subtracting the background time zero data from that generated following the final 60 minute incubate and the percent inhibition compared to the maximum and minimum assay controls was determined. Sigmoid curves were fitted using Origin 7.5 Client software and IC50 values were determined.

T1 sequence (P49327 whole entry): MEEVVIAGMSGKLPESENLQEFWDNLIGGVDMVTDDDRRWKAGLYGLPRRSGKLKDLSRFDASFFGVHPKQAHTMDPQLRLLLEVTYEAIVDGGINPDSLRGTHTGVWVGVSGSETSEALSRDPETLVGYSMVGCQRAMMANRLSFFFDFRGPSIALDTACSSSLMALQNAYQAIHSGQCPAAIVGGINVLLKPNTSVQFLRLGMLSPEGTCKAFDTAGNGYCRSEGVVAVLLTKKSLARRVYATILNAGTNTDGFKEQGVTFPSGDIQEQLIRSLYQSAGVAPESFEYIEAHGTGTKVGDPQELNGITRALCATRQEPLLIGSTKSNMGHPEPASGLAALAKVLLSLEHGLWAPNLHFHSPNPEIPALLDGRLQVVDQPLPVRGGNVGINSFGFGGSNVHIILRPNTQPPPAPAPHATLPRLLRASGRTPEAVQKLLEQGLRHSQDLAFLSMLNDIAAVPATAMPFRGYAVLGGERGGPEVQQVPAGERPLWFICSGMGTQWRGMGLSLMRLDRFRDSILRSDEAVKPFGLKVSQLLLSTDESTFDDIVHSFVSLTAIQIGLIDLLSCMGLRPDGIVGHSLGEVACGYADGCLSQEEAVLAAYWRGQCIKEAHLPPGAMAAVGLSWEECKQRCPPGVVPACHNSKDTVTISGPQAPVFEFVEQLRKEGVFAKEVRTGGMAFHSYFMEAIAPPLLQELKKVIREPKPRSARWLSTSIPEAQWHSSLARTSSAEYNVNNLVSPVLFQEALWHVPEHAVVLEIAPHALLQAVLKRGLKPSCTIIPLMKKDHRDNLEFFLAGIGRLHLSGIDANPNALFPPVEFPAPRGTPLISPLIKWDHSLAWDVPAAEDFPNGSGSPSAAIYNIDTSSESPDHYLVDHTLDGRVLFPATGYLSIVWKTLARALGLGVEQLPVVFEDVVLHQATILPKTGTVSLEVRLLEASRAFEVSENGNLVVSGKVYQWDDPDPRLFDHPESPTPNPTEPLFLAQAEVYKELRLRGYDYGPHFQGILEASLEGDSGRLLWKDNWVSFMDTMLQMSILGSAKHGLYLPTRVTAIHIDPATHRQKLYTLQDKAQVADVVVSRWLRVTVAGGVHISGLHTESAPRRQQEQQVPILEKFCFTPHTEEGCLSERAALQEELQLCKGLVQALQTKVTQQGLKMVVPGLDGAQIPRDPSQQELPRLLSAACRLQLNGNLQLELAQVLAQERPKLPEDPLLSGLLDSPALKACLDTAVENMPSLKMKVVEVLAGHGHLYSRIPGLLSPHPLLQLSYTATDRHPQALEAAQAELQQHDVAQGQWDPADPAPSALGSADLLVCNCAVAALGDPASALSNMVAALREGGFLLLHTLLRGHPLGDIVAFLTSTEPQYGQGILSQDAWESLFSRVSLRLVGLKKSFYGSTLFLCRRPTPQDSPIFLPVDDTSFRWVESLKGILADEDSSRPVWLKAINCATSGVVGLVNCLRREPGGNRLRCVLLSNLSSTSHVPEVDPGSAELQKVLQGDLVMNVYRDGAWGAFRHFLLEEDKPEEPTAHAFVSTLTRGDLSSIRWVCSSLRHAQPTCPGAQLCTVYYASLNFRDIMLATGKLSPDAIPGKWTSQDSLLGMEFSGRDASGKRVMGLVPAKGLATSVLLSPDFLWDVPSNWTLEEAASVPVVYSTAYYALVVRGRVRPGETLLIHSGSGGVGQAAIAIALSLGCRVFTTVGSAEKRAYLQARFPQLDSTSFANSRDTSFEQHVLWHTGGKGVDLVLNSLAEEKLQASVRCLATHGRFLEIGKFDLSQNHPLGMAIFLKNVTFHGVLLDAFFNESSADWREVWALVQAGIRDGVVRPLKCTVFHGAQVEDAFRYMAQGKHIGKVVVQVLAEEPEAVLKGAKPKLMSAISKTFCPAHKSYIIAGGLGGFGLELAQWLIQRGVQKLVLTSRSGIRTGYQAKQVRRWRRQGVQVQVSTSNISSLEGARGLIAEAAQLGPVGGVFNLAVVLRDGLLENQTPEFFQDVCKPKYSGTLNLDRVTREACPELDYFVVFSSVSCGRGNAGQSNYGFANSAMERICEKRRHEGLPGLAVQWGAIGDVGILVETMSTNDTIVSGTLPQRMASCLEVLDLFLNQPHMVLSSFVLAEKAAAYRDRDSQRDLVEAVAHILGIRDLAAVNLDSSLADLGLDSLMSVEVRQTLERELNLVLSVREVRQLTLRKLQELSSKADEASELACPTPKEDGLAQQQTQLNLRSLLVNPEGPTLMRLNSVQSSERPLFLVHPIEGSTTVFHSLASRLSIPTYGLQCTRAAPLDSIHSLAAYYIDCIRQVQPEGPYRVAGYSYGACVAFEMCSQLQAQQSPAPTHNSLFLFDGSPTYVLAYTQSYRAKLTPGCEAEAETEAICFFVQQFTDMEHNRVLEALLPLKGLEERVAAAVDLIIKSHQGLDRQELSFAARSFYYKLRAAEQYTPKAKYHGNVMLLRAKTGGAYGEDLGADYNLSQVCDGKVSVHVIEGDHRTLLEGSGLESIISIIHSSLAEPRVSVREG

Consider `Cc1ccc(C(=O)N2CCC(c3ccc(C#N)cc3)CC2)cc1NC(=O)NCc1cn(C)nc1C` [Example 258, 1-[5-[4-(4-cyanophenyl)piperidine-1-carbonyl]-2-methyl-phenyl]-3-[(1,3-dimethylpyrazol-4-yl)methyl]urea], for which the inhibition at 100 µM is 89%. The same measure, in the same setting: next, `Cc1ccc(C(=O)N2CCC(c3ccc(C#N)cc3)CC2)cc1NC(=O)NC(CO)CO` [Example 186, 1-[5-[4-(4-cyanophenyl)piperidine-1-carbonyl]-2-methyl-phenyl]-3-(1,3-dihydroxypropan-2-yl)urea]: 86.4%. The same measure, in the same setting: the figure for `Cc1ccc(C(=O)N2CCC(c3ccc(C#N)cc3)CC2)cc1NC(=O)N[C@@H]1CCCC[C@H]1NS(=O)(=O)N(C)C` (relative stereo) [Example 319, 1-[5-[4-(4-cyanophenyl)piperidine-1-carbonyl]-2-methyl-phenyl]-3-[(trans)-2-(dimethylsulfamoylamino)cyclohexyl]urea] is 84.3%; for `Cc1ccc(C(=O)N2CCC(c3ccc(C#N)cc3)CC2)cc1NC(=O)N1CCN(C(=O)N(C)C)CC1` [Example 332, N-[5-[4-(4-cyanophenyl)piperidine-1-carbonyl]-2-methyl-phenyl]-N′,N′-dimethyl-piperazine-1,4-dicarboxamide] it is 96.5%.

For `CC(C)NC(=O)Nc1ccc([S+](C)[O-])c(C(=O)N2CCC(c3ccc(C#N)cc3)CC2)c1` (centres unmarked) [3-[3-[4-(4-cyanophenyl)piperidine-1-carbonyl]-4-methylsulfinylphenyl]-1-propan-2-ylurea], the “IC50, inhibition of human Fatty Acid Synthase” value (from here on “IC50, inhibition”) is “do not have IC50s in the range of about 0.001 μM to about 30 μM”. Consider `Cc1ccc(C(=O)N2CCC(c3ccc(C#N)cc3)CC2)cc1NC(=O)NC1(C)CC1` [Example 389, 1-[5-[4-(4-cyanophenyl)piperidine-1-carbonyl]-2-methylphenyl]-3-(1-methylcyclopropyl)-urea], for which the inhibition at 100 µM came to 78.6%. Consider `Cc1ccc(C(=O)N2CCC(c3ccc(C#N)cc3)CC2)cc1NC(=O)NCC(C)(C)NS(C)(=O)=O` [Example 202, 1-[5-[4-(4-cyanophenyl)piperidine-1-carbonyl]-2-methyl-phenyl]-3-(2-methanesulfonamido-2-methyl-propyl)urea], for which the inhibition at 100 µM came to 97.3%. For `CCOC(=O)[C@H](CO)NC(=O)Nc1cc(C(=O)N2CCC(c3ccc(C#N)cc3)CC2)ccc1C` [Ethyl (2S)-2-[[5-[4-(4-cyanophenyl)piperidine-1-carbonyl]-2-methylphenyl]carbamoylamino]-3-hydroxypropanoate], the “IC50, inhibition” value is “do not have IC50s in the range of about 0.001 μM to about 30 μM”. As for `Cc1ccc(C(=O)N2CCC(c3ccc(C#N)cc3)CC2)cc1NC(=O)NCc1ccc(S(C)(=O)=O)cc1` [Example 243, 1-[5-[4-(4-cyanophenyl)piperidine-1-carbonyl]-2-methyl-phenyl]-3-[(4-methylsulfonylphenyl)methyl]urea], the inhibition at 100 µM is 99.9%. Still for that read-out and setting: next, `Cc1ccc(C(=O)N2CCC(c3ccc(C#N)cc3)CC2)cc1NC(=O)NC1CCN(C(=O)N(C)C)CC1` [Example 284, 4-[[5-[4-(4-cyanophenyl)piperidine-1-carbonyl]-2-methyl-phenyl]carbamoylamino]-N,N-dimethyl-piperidine-1-carboxamide]: 106%; `Cc1ccc(C(=O)N2CCC(c3ccc(C#N)cc3)CC2)cc1NC(=O)N[C@@H]1CCN(S(C)(=O)=O)C1` [Example 218, 1-[5-[4-(4-cyanophenyl)piperidine-1-carbonyl]-2-methyl-phenyl]-3-[(3R)-1-methylsulfonylpyrrolidin-3-yl]urea]: 84.4%.

Consider `COc1cccc(C2CCN(C(=O)c3ccc(C)c(NC(=O)NC(C)C)c3)CC2)c1` [1-[5-[4-(3-methoxyphenyl)piperidine-1-carbonyl]-2-methylphenyl]-3-propan-2-ylurea], for which the “IC50, inhibition” value is recorded as “do not have IC50s in the range of about 0.001 μM to about 30 μM”. In the case of `COCC(C)NC(=O)Nc1cc(C(=O)N2CCC(c3ccc(C#N)cc3)CC2)ccc1C` (centres unmarked) [Example 155, 1-[5-[4-(4-cyanophenyl)piperidine-1-carbonyl]-2-methyl-phenyl]-3-(1-methoxypropan-2-yl)urea], the inhibition at 100 µM worked out at 90.1%. The same measure, in the same setting: the figure for `Cc1ccc(NC(=O)NC2CCCC2)cc1C(=O)N1CCC(c2ccc(C#N)cc2)CC1` [Example 21, 1-[3-[4-(4-cyanophenyl)piperidine-1-carbonyl]-4-methyl-phenyl]-3-cyclopentyl-urea] is 78.8%. Take `Cc1ccc(C(=O)N2CCC(c3ccc(C#N)cc3)CC2)cc1NC(=O)NCCNC(=O)c1cnoc1C` [Example 119, N-[2-[[5-[4-(4-cyanophenyl)piperidine-1-carbonyl]-2-methyl-phenyl]carbamoylamino]ethyl]-5-methyl-1,2-oxazole-4-carboxamide]: the inhibition at 100 µM was found to be 89.2%. Same read-out and setting: the figure for `Cc1ccc(C(=O)N2CCC(c3ccc(C#N)cc3)CC2)cc1NC(=O)NCCCCN(C)C` [Example 142, 1-[5-[4-(4-cyanophenyl)piperidine-1-carbonyl]-2-methyl-phenyl]-3-(4-dimethylaminobutyl)urea] is 80.3%; for `CC(C)NC(=O)Nc1cc(C(=O)N2CCC(c3ccc(C#N)cc3)CC2)ccc1F` [Example 11, 3-[5-[4-(4-cyanophenyl)piperidine-1-carbonyl]-2-fluoro-phenyl]-1-propan-2-yl-urea] it is 68.4%.

In the case of `Cc1ccc(C(=O)N2CCC(c3ccc(C#N)cc3)CC2)cc1NC(=O)NCCC(=O)Nc1ccccn1` [Example 170, 3-[[5-[4-(4-cyanophenyl)piperidine-1-carbonyl]-2-methyl-phenyl]carbamoylamino]-N-pyridin-2-yl-propanamide], the inhibition at 100 µM amounted to 94.6%. On the same count and under the same terms, next, `Cc1ccc(C(=O)N2CCC(c3ccc(C#N)cc3)CC2)cc1NC(=O)NC1CCNCC1` [Example 211, 1-[5-[4-(4-cyanophenyl)piperidine-1-carbonyl]-2-methyl-phenyl]-3-(4-piperidyl)urea]: 87.4%. On the same count and under the same terms, the figure for `CSCCCNC(=O)Nc1cc(C(=O)N2CCC(c3ccc(C#N)cc3)CC2)ccc1C` [Example 157, 1-[5-[4-(4-cyanophenyl)piperidine-1-carbonyl]-2-methyl-phenyl]-3-(3-methylsulfanylpropyl)urea] is 92.7%; for `Cc1ccc(C(=O)N2CCC(c3ccc(C#N)cc3)CC2)cc1NC(=O)NCCC(=O)N(CCO)CCO` [Example 242, 3-[[5-[4-(4-cyanophenyl)piperidine-1-carbonyl]-2-methyl-phenyl]carbamoylamino]-N,N-bis(2-hydroxyethyl)propanamide] it is 90.6%. For the compound `Cc1ccc(C(=O)N2CCC(c3ccc(C#N)cc3)CC2)cc1NC(=O)NCc1ncc(F)cc1F` [Example 367, 1-[5-[4-(4-cyanophenyl)piperidine-1-carbonyl]-2-methylphenyl]-3-[(3,5-difluoropyridin-2-yl)methyl]urea], the inhibition at 100 µM came to 107%. On to `Cc1ccc(C(=O)N2CCC(c3ccc(C#N)cc3)CC2)cc1NC(=O)NC1CCCC[C@@H]1C(N)=O` (stereo partly drawn) [Example 134, (1S)-2-[[5-[4-(4-cyanophenyl)piperidine-1-carbonyl]-2-methyl-phenyl]carbamoylamino]cyclohexane-1-carboxamide], for which the inhibition at 100 µM came to 84.6%.

The term inhibition denotes the drop in the measured response relative to a control, in per cent.
